These are literature values, as cited in publication PMC3310340 (Bioconjugate Chemistry, 2012).

Some results are limits rather than exact numbers.

This series relates to rats. The note with it: administered orally to rats; ref material safety data sheet for KHP.

One may read the LD50 as the dose expected to kill half of the subjects tested. As for `O=C(O)c1ccccc1C(=O)O` [KHP, potassium biphthalate], the LD50 is reported as over 3200 mg/kg.
